Measurements: paper PMC10145393, “Virtual Screening Strategy to Identify Retinoic Acid-Related Orphan Receptor γt Modulators” (Molecules, 2023)

system: not given; assay: not given; set-up: method as in vendor (SPECS); conditions: reported by the vendor ref vendor (SPECS); cited from earlier work

| SMILES | logP |
| --- | --- |
| O=C(COC(=O)c1ccc(N2C(=O)C3C4c5ccccc5C(c5ccccc54)C3C2=O)cc1)c1cccc([N+](=O)[O-])c1 (stereo not shown) [Compound 17] | 2.93 |
| COc1cc(C(=O)N2CCN(CCN3C(=O)c4cccc5cccc(c45)C3=O)CC2)cc(OC)c1OC [Compound 2] | 1.69 |

biological target: T1, human RORγ hybrids of both isoforms 1 and 2 (RORγt) (Homo sapiens, UniProt P51449); assay: Human RAR-related Orphan Receptor Gamma Reporter Assay System (Indigo Biosciences); format: cell-based; conditions: not given
T1 sequence (P51449 259-518): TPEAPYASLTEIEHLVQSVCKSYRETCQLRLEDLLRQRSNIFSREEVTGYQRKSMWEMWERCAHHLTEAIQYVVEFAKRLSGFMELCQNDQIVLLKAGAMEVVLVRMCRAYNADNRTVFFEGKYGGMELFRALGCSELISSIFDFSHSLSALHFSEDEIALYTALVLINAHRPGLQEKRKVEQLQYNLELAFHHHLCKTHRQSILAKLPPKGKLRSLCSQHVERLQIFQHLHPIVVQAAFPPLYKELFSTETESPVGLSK
Description: The activity of the 28 selected molecules was determined at 5 μM concentration using the Human RAR-related Orphan Receptor Gamma Reporter Assay System in a 96-well format (Indigo Biosciences, State College, PA, USA). The assay utilizes human reporter cells designed to express high levels of human RORγ hybrids of both isoforms 1 and 2 and is capable of quantifying inverse agonism and agonism. […] Concentrations of the tested molecules varied from 10 µM to 8 nM, using 1/3-fold decrements within the range of 6 µM to 8 nM. Otherwise, the kit protocol was followed, and the analysis was done similarly as in a prior study.

| SMILES | IC50 [nM] |
| --- | --- |
| COc1cc(C2C(C#N)=C(N)N(Nc3ccccc3)C3=C2C(=O)CC(C)(C)C3)ccc1OCc1ccccc1 (stereo not shown) [Compound 26] | 3200 |
| COc1cc(C2C(C#N)=C(N)N(Nc3ccccc3)C3=C2C(=O)CC(C)(C)C3)ccc1OCc1cccc(F)c1 (stereo not shown) [Compound 25] | 2400 |

same assay, conditions: RORγ reporter assay, concentrations 10 µM to 8 nM; read-out: IC50

| IC50 [nM] | SMILES |
| --- | --- |
| 2300 | COc1ccc(C2CC(=O)C3=C(C2)NC(C)=C(C(=O)OC2CCCCC2)C3c2cccc(O)c2)cc1OC (stereo not shown) [Compound 14] |
| 2600 | COc1cc(C2C(C(=O)OC3CCCCC3)=C(C)NC3=C2C(=O)CC(c2ccc(OC)c(OC)c2)C3)ccc1O (stereo not shown) [Compound 13] |
| 10700 | COc1ccc(Cn2c(-c3ccc(S(=O)(=O)N4CCOCC4)cc3)cs/c2=N\c2ccccc2OC)cc1 [Compound 21] |
| 1100 | COc1ccc(-c2nc3ccccc3c(C(=O)Nc3ccc(S(=O)(=O)Nc4cc(C)on4)cc3)c2C)cc1 [Compound 19] |
| 7300 | O=C(O)c1ccc(CN2C(=O)/C(=C/c3cn(Cc4ccc([N+](=O)[O-])cc4)c4ccccc34)S/C2=N/c2ccccc2)cc1 [Compound 15] |
| 9700 | COc1ccc(-c2cc(C(F)(F)F)n3ncc(C(=O)N4CCN(C(c5ccccc5)c5ccccc5)CC4)c3n2)cc1 [Compound 10] |
| 1700 | Clc1ccccc1COc1cccc(/C=N/Nc2nc(N3CCOCC3)nc(N3CCOCC3)n2)c1 [Compound 9] |

system: not listed separately; assay: Solubility observed in experimental testing; conditions: not given

| solubility | SMILES |
| --- | --- |
| non-soluble | O=C(COC(=O)c1ccc(N2C(=O)C3C4c5ccccc5C(c5ccccc54)C3C2=O)cc1)c1cccc([N+](=O)[O-])c1 (stereo not shown) [Compound 17] |
| non-soluble | COc1cc(C(=O)N2CCN(CCN3C(=O)c4cccc5cccc(c45)C3=O)CC2)cc(OC)c1OC [Compound 2] |
